Assay [1] deals with TNFα production in LPS-stimulated human monocytes. The experiment in a line: Cot Monocyte TNFα Cell Based Assay. Particulars: Homo sapiens, Monocyte, read-out: EC50 TNF. The gist of the method: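 Cells at 5,000/well were pretreated with compound for 1 h at 37 °C (0.5% DMSO final), then stimulated with 50 pg/ml LPS for 4 h at 37 °C. Supernatant TNFα was measured by two-antibody TR-FRET after overnight room-temperature incubation; values are percent of control between unstimulated and stimulated wells.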

Assay [2] has as its target T1, human Cot catalytic domain (30-397 amino acids) (Homo sapiens, UniProt P41279).
T1 construct: Purified recombinant human Cot catalytic domain (30-397 amino acids) was purchased from Cama Biosciences; purchased Cama Biosciences (so in the source)
The experiment in a line: High Throughput Cot Biochemical Assay (KinEASE TR-FRET). Particulars: Cot KinEASE TR-FRET (HTRF) biochemical assay, 400 μM ATP; read-out: IC50 HTRF. The essentials: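 Reaction of 5 nM recombinant human Cot catalytic domain (aa 30-397) with 1 μM STK3 peptide (XL665-labeled) and 400 μM ATP in 10 mM MOPS pH 7.0, 10 mM MgOAc, 1 mM DTT, 0.5 mg/mL BSA, 0.1% DMSO. Phosphopeptide detected by TR-FRET with europium anti-phospho antibody.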
In general terms: Time-resolved FRET reads energy transfer from a long-lived donor to a nearby acceptor.

Where [3] appears, read: TNFα in LPS-stimulated human monocytes.

Read-outs that look alike come from different tables or passages of the source. Some results are limits rather than exact numbers.

T1 sequence (P41279 30-397): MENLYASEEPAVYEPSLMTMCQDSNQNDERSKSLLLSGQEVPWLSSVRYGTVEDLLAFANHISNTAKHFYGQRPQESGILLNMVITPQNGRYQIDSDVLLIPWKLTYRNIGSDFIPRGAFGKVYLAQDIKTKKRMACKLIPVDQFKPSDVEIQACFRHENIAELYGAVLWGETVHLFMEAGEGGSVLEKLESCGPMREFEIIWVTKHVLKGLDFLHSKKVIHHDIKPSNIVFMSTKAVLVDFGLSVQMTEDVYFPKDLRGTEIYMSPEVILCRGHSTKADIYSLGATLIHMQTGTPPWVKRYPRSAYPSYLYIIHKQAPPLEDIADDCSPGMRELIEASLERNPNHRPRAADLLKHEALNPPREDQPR

By EC50 is commonly meant the concentration giving half of the maximal effect. By IC50 is commonly meant the concentration at which inhibition is half-maximal. In the case of `[2H][C@](Nc1cc(Cl)c2ncc(C#N)c(N[C@H](CCO)c3ccccc3)c2c1)(c1cccc(C#N)c1)c1cn(C2CC2)nn1` [Example 259, 8-chloro-6-(((3-cyanophenyl)(1-cyclopropyl-1H-1,2,3-triazol-4-yl)methyl-d)amino)-4-(((R)-3-hydroxy-1-phenylpropyl)amino)quinoline-3-carbonitrile], in assay [1] (setting [3]), the EC50 is 87 nM. Further, the 50% inhibitory concentration (IC50) in assay [2] was found to be 5 nM.

Consider `[2H][C@](Nc1cc(Cl)c2ncc(C#N)c(NCC3(C4CC4)CCC3)c2c1)(c1ccc(F)cc1)c1cn(C2CC2)nn1` [Example 260, (S)-8-chloro-6-(((1-cyclopropyl-1H-1,2,3-triazol-4-yl)(4-fluorophenyl)methyl-d)amino)-4-(((1-cyclopropylcyclobutyl)methyl)amino)quinoline-3-carbonitrile], for which the 50% effective concentration (EC50) in assay [1] (setting [3]) was 584 nM. In assay [2], the IC50 amounted to 33 nM.

For the compound `[2H][C@](Nc1cc(Cl)c2ncc(C#N)c(NC[Si](C)(C)C)c2c1)(c1ccc(F)cc1)c1cn(C2CC2)nn1` [Example 262, (S)-8-chloro-6-(((1-cyclopropyl-1H-1,2,3-triazol-4-yl)(4-fluorophenyl)methyl-d)amino)-4-(((trimethylsilyl)methyl)amino) quinoline-3-carbonitrile], in assay [1], the EC50 was found to be 259 nM. The half-inhibitory concentration (IC50) in assay [2] was 10 nM.

Turning to `[2H]C(Nc1cc(Cl)c2ncc(C#N)c(NCC(C)(C)C)c2c1)(c1ccc(F)cc1)c1nnnn1Cc1ccc(OC)cc1` (centres unmarked) [Example 263, 8-chloro-6-(((4-fluorophenyl) (1-(4-methoxybenzyl)-1H-tetrazol-5-yl)methyl-d)amino)-4-(neopentylamino)quinoline-3-carbonitrile], the EC50 in assay [1] (setting [3]) was more than 10000 nM. Also, in assay [2], the IC50 was found to be 733 nM.

With `N#Cc1cnc2c(Cl)cc(N[C@@H](c3cccc(C(F)(F)F)c3)c3cn(C4CC4)nn3)cc2c1Nc1cnc(F)c(F)c1` [Example 264, (S)-8-chloro-6-(((1-cyclopropyl-1H-1,2,3-triazol-4-yl)(3-(trifluoromethyl)phenyl)methyl)amino)-4-((5,6-difluoropyridin-3-yl)amino)quinoline-3-carbonitrile], in assay [1] (setting [3]), the EC50 was determined as 567 nM. In assay [2], the concentration for half-maximal inhibition (IC50) is 45 nM.

In the case of `N#Cc1cnc2c(Cl)cc(N[C@@H](c3cccc(F)c3)c3cn(C4CC4)nn3)cc2c1Nc1cnc(F)c(F)c1` [Example 265, (S)-8-chloro-6-(((1-cyclopropyl-1H-1,2,3-triazol-4-yl)(3-fluorophenyl)methyl)amino)-4-((5,6-difluoropyridin-3-yl)amino)quinoline-3-carbonitrile], the concentration for a half-maximal effect (EC50) in assay [1] (setting [3]) was determined as 471 nM. In addition, the half-maximal inhibitory concentration (IC50) in assay [2] was 12 nM.

Turning to `N#Cc1cnc2c(Cl)cc(N[C@@H](c3cccc(Cl)c3)c3cn(C4CC4)nn3)cc2c1Nc1cnc(F)c(F)c1` [Example 266, (S)-8-chloro-6-(((3-chlorophenyl)(1-cyclopropyl-1H-1,2,3-triazol-4-yl)methyl)amino)-4-((5,6-difluoropyridin-3-yl)amino)quinoline-3-carbonitrile], the concentration giving a half-maximal response (EC50) in assay [1] (setting [3]) was found to be 424 nM. In addition, the concentration for half-maximal inhibition (IC50) in assay [2] came out at 16 nM.

As for `[2H][C@](Nc1cc(Cl)c2ncc(C#N)c(NC(CC#N)c3ccccc3)c2c1)(c1ccc(F)cc1)c1cn(-c2cccnc2)nn1` (stereo partly drawn) [Example 267, 8-chloro-4-((2-cyano-1-phenylethyl)amino)-6-(((S)-(4-fluorophenyl)(1-(pyridin-3-yl)-1H-1,2,3-triazol-4-yl)methyl-d)amino)quinoline-3-carbonitrile], the EC50 in assay [1] (setting [3]) was determined as 194 nM. Besides, the IC50 in assay [2] was 7 nM.

Consider `[2H][C@](Nc1cc(Cl)c2ncc(C#N)c(NCCC(C)C)c2c1)(c1ccc(F)cc1)c1cn(C2CC2)nn1` [Example 268, (S)-8-chloro-6-(((1-cyclopropyl-1H-1,2,3-triazol-4-yl)(4-fluorophenyl)methyl-d)amino)-4-(isopentylamino)quinoline-3-carbonitrile], for which, in assay [1] (setting [3]), the EC50 came to 2890 nM. Besides, the half-inhibitory concentration (IC50) in assay [2] was 166 nM.

For `[2H][C@](Nc1cc(Cl)c2ncc(C#N)c(NCCC3CC3)c2c1)(c1ccc(F)cc1)c1cn(C2CC2)nn1` [Example 269, (S)-8-chloro-6-(((1-cyclopropyl-1H-1,2,3-triazol-4-yl)(4-fluorophenyl)methyl-d)amino)-4-((2-cyclopropylethyl)amino)quinoline-3-carbonitrile], in assay [1] (setting [3]), the EC50 was found to be 4520 nM. Moreover, the IC50 in assay [2] is 253 nM.

As for `[2H][C@](Nc1cc(Cl)c2ncc(C#N)c(NCCc3ccccn3)c2c1)(c1ccc(F)cc1)c1cn(C2CC2)nn1` [Example 270, (S)-8-chloro-6-(((1-cyclopropyl-1H-1,2,3-triazol-4-yl)(4-fluorophenyl)methyl-d)amino)-4-((2-(pyridin-2-yl)ethyl)amino)quinoline-3-carbonitrile], the EC50 in assay [1] (setting [3]) was determined as 2280 nM. Also, the half-inhibitory concentration (IC50) in assay [2] turned out to be 96 nM.

`[2H][C@](Nc1cc(Cl)c2ncc(C#N)c(NCCc3cccnc3)c2c1)(c1ccc(F)cc1)c1cn(C2CC2)nn1` [Example 271, (S)-8-chloro-6-(((1-cyclopropyl-1H-1,2,3-triazol-4-yl)(4-fluorophenyl)methyl-d)amino)-4-((2-(pyridin-3-yl)ethyl)amino)quinoline-3-carbonitrile]: the EC50 in assay [1] (setting [3]) came to 4560 nM. In assay [2], the IC50 was determined as 434 nM.

For `CC[C@@H](Nc1c(C#N)cnc2c(Cl)cc(N[C@@H](c3cccc(F)c3)c3cn(C4CC4)nn3)cc12)c1ccccc1` [Example 272, 8-chloro-6-(((S)-(1-cyclopropyl-1H-1,2,3-triazol-4-yl)(3-fluorophenyl)methyl)amino)-4-(((R)-1-phenylpropyl)amino)quinoline-3-carbonitrile], the EC50 in assay [1] (setting [3]) came out at 215 nM. For the same compound, in assay [2], the half-inhibitory concentration (IC50) was 12 nM.

Consider `CC[C@@H](Nc1c(C#N)cnc2c(Cl)cc(N[C@@H](c3cccc(Cl)c3)c3cn(C4CC4)nn3)cc12)c1ccccc1` [Example 273, 8-chloro-6-(((S)-(3-chlorophenyl)(1-cyclopropyl-1H-1,2,3-triazol-4-yl)methyl)amino)-4-(((R)-1-phenylpropyl)amino)quinoline-3-carbonitrile], for which the EC50 in assay [1] (setting [3]) is 178 nM. Besides, in assay [2], the IC50 worked out at 13 nM.

For the compound `[2H][C@](Nc1cc(Cl)c2ncc(C#N)c(Nc3cccc(Cl)c3)c2c1)(c1cccc(C#N)c1)c1cn(C2CC2)nn1` [Example 274, (S)-8-chloro-4-((3-chlorophenyl)amino)-6-(((3-cyanophenyl)(1-cyclopropyl-1H-1,2,3-triazol-4-yl)methyl-d)amino)quinoline-3-carbonitrile], the EC50 in assay [1] (setting [3]) stood at 254 nM. For the same compound, in assay [2], the IC50 was 5 nM.

In the case of `[2H][C@](Nc1cc(Cl)c2ncc(C#N)c(Nc3c(F)ccc(Cl)c3F)c2c1)(c1cccc(C#N)c1)c1cn(C2CC2)nn1` [Example 275, (S)-8-chloro-4-((3-chloro-2,6-difluorophenyl)amino)-6-(((3-cyanophenyl)(1-cyclopropyl-1H-1,2,3-triazol-4-yl)methyl-d)amino)quinoline-3-carbonitrile], the EC50 in assay [1] (setting [3]) was found to be 246 nM. In assay [2], the IC50 turned out to be 23 nM.

For `[2H][C@](Nc1cc(Cl)c2ncc(C#N)c(NCC3(C)CCC3)c2c1)(c1cccc(C#N)c1)c1cn(C2CC2)nn1` [Example 276, (S)-8-chloro-6-(((3-cyanophenyl)(1-cyclopropyl-1H-1,2,3-triazol-4-yl)methyl-d)amino)-4-(((1-methylcyclobutyl)methyl)amino) quinoline-3-carbonitrile], the EC50 in assay [1] (setting [3]) is 166 nM. For the same compound, in assay [2], the IC50 is 3 nM.

As for `[2H][C@@](Nc1cc(Cl)c2ncc(C#N)c(NC3CC4CCC3CC4)c2c1)(c1ccc(F)cc1)c1cn(C2CC2)nn1` (stereo partly drawn) [Example 277, 4-(((1s,4s)-bicyclo[2.2.2]octan-2-yl)amino)-8-chloro-6-(((S)-(1-cyclopropyl-1H-1,2,3-triazol-4-yl)(4-fluorophenyl)methyl-d)amino)quinoline-3-carbonitrile], in assay [1] (setting [3]), the half-maximal effective concentration (EC50) came out at 858 nM. For the same compound, the IC50 in assay [2] worked out at 32 nM.

With `[2H][C@](Nc1cc(Cl)c2ncc(C#N)c(N)c2c1)(c1ccc(F)cc1)c1cn(C2CC2)nn1` [Example 279, 4-amino-8-chloro-6-(((S)-(1-cyclopropyl-1H-1,2,3-triazol-4-yl)(4-fluorophenyl)methyl-d)amino)quinoline-3-carbonitrile], the concentration giving a half-maximal response (EC50) in assay [1] (setting [3]) came out at 8200 nM. The IC50 in assay [2] was found to be 3050 nM.

For the compound `[2H][C@](Nc1cc(Cl)c2ncc(C#N)c(NOC(C)(C)C)c2c1)(c1ccc(F)cc1)c1cn(C2CC2)nn1` [Example 280, (S)-4-(tert-butoxyamino)-8-chloro-6-(((1-cyclopropyl-1H-1,2,3-triazol-4-yl)(4-fluorophenyl)methyl-d)amino)quinoline-3-carbonitrile], the EC50 in assay [1] (setting [3]) stood at 1470 nM. The IC50 in assay [2] came out at 228 nM.

In the case of `[2H][C@](Nc1cc(Cl)c2ncc(C#N)c(N[C@H](CC)c3cccc(C)c3)c2c1)(c1ccc(F)cc1)c1cn(C2CC2)nn1` [Example 281, 8-chloro-6-(((S)-(1-cyclopropyl-1H-1,2,3-triazol-4-yl)(4-fluorophenyl)methyl-d)amino)-4-(((R)-1-(m-tolyl)propyl)amino)quinoline-3-carbonitrile], the EC50 in assay [1] (setting [3]) amounted to 1040 nM. In assay [2], the half-maximal inhibitory concentration (IC50) amounted to 68 nM.

Regarding `[2H][C@](Nc1cc(Cl)c2ncc(C#N)c(NC(C)(C)CC)c2c1)(c1ccc(F)cc1)c1cn(C2CC2)nn1` [Example 282, (S)-8-chloro-6-(((1-cyclopropyl-1H-1,2,3-triazol-4-yl)(4-fluorophenyl)methyl-d)amino)-4-(tert-pentylamino) quinoline-3-carbonitrile], the EC50 in assay [1] (setting [3]) came out at 525 nM. The 50% inhibitory concentration (IC50) in assay [2] was 39 nM.

These data come from US10316017B2, “COT modulators and methods of use thereof” (Gilead Sciences, Inc., priority 2015, dated 2019).
